Data published in the supplement of paper PMC10307832.

What was measured:
Test in all cases: relative viability (nuclei count vs DMSO), 5 days (fraction); higher = more cells survive
Carfilzomib + OSI-027 = compound: CC(C)C[C@H](NC(=O)[C@H](CCc1ccccc1)NC(=O)CN1CCOCC1)C(=O)N[C@@H](Cc1ccccc1)C(=O)N[C@@H](CC(C)C)C(=O)[C@@]1(C)CO1 [Carfilzomib] + COc1cccc2cc(-c3nc([C@H]4CC[C@H](C(=O)O)CC4)n4ncnc(N)c34)[nH]c12 [OSI-027] (partner 0.5 µM)
Summary of the method: (§1)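 Each reported value is a median over duplicate plates. It expresses relative viability: treated-well nuclei count divided by vehicle-well nuclei count. Lung cancer cell lines in 1536-well plates were dosed by pin tool a day after seeding, alone with one drug or with a fixed anchor-drug dose plus five library-drug doses (not always all listed) in √10 steps, and nuclei were counted after 5 days.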

Carfilzomib + Olaparib = compound: CC(C)C[C@H](NC(=O)[C@H](CCc1ccccc1)NC(=O)CN1CCOCC1)C(=O)N[C@@H](Cc1ccccc1)C(=O)N[C@@H](CC(C)C)C(=O)[C@@]1(C)CO1 [Carfilzomib] + O=C(c1cc(Cc2n[nH]c(=O)c3ccccc23)ccc1F)N1CCN(C(=O)C2CC2)CC1 [Olaparib] (partner 8 µM)
Summary of the method: as §1

Olaparib + Tozasertib = compound: O=C(c1cc(Cc2n[nH]c(=O)c3ccccc23)ccc1F)N1CCN(C(=O)C2CC2)CC1 [Olaparib] + Cc1cc(Nc2cc(N3CCN(C)CC3)nc(Sc3ccc(NC(=O)C4CC4)cc3)n2)n[nH]1 [Tozasertib] (partner 0.1 µM)
Summary of the method: as §1

Carfilzomib + Linsitinib = compound: CC(C)C[C@H](NC(=O)[C@H](CCc1ccccc1)NC(=O)CN1CCOCC1)C(=O)N[C@@H](Cc1ccccc1)C(=O)N[C@@H](CC(C)C)C(=O)[C@@]1(C)CO1 [Carfilzomib] + C[C@]1(O)C[C@@H](c2nc(-c3ccc4ccc(-c5ccccc5)nc4c3)c3c(N)nccn32)C1 [Linsitinib] (partner 1 µM)
Summary of the method: as §1

Cell Line | relative viability (Carfilzomib + OSI-027; first compound 0.001 µM) | relative viability (Carfilzomib + OSI-027; first compound 0.003162 µM) | relative viability (Carfilzomib + OSI-027; first compound 0.01 µM) | relative viability (Carfilzomib + OSI-027; first compound 0.03162 µM) | relative viability (Carfilzomib + OSI-027; first compound 0.1 µM) | relative viability (Carfilzomib + Olaparib; first compound 0.001 µM) | relative viability (Carfilzomib + Olaparib; first compound 0.003162 µM) | relative viability (Carfilzomib + Olaparib; first compound 0.01 µM) | relative viability (Carfilzomib + Olaparib; first compound 0.03162 µM) | relative viability (Carfilzomib + Olaparib; first compound 0.1 µM) | relative viability (Olaparib + Tozasertib; first compound 0.08 µM) | relative viability (Olaparib + Tozasertib; first compound 0.253 µM) | relative viability (Olaparib + Tozasertib; first compound 2.53 µM) | relative viability (Olaparib + Tozasertib; first compound 8 µM) | relative viability (Carfilzomib + Linsitinib; first compound 0.001 µM) | relative viability (Carfilzomib + Linsitinib; first compound 0.003162 µM) | relative viability (Carfilzomib + Linsitinib; first compound 0.01 µM) | relative viability (Carfilzomib + Linsitinib; first compound 0.03162 µM) | relative viability (Carfilzomib + Linsitinib; first compound 0.1 µM)
ChaGo-K-1 | 0.414 | 0.576 | 0.659 | 0.554 | 0.176 | 0.447 | 0.409 | 0.392 | 0.172 | 0.142 | 0.286 | 0.198 | 0.232 | 0.197 |  |  |  |  | 
EBC-1 |  |  |  |  |  | 0.721 | 0.63 | 0.191 | 0.0599 | 0.082 |  |  |  |  | 0.87 | 0.989 | 0.735 | 0.0736 | 0.0886
EKVX | 0.689 | 0.754 | 0.834 | 0.601 | 0.315 | 0.854 | 0.908 | 1.02 |  | 0.231 | 0.441 | 0.352 | 0.388 | 0.445 | 0.927 | 1.2 | 1.08 | 1.01 | 0.33
EMC-BAC-2 | 0.378 | 0.448 | 0.409 | 0.242 | 0.197 | 0.484 | 0.454 | 0.561 | 0.411 | 0.249 | 0.284 | 0.296 | 0.279 | 0.262 | 0.78 | 0.786 | 0.844 | 0.836 | 0.401
EPLC-272H | 0.284 | 0.291 | 0.248 | 0.119 | 0.0723 | 0.825 | 0.864 | 0.302 | 0.0584 | 0.0607 | 0.193 | 0.234 | 0.312 | 0.172 | 1.04 | 1.32 | 1.16 | 0.193 | 0.0783
H3255 | 0.581 | 0.536 | 0.65 | 0.584 | 0.237 | 0.565 | 0.609 | 0.668 | 0.402 | 0.235 | 0.704 | 0.602 | 0.82 | 0.496 | 0.942 | 1.06 | 0.995 | 0.739 | 0.373
HARA | 0.537 | 0.564 | 0.675 | 0.0444 | 0.0712 | 1.25 | 0.943 | 1.2 | 0.0637 | 0.0917 | 0.14 | 0.0884 | 0.0969 | 0.0782 | 0.89 | 1.03 | 1.07 | 0.0722 | 0.0537
HCC-15 | 0.706 | 0.801 | 0.763 | 0.279 | 0.0802 | 0.73 | 0.771 | 0.75 | 0.551 | 0.166 | 0.479 | 0.341 | 0.406 | 0.29 | 0.847 | 0.958 | 0.937 | 0.765 | 0.168
HCC-44 | 0.48 | 0.564 | 0.574 | 0.338 | 0.217 | 1.07 | 0.975 | 0.985 | 1.03 | 0.637 | 1.27 | 0.857 | 0.871 | 1.06 | 0.592 | 0.75 | 0.673 | 0.487 | 0.174
